Measurements reported in patent publication US9321773B2, “Compounds” (Respivert Ltd, priority 2009, dated 2016).
pIC50: −log10 of the molar value.

How the values were obtained:
[1] = test system: PMA-differentiated U937 cells; assay: MTT Assay (cell viability); type: cell-based, Human; conditions: percentage loss of cell viability; for Cell Viability MTT Assay in D-U937 cells at 4 hr: 4 hr in 5% FCS; for Cell Viability MTT Assay in D-U937 cells at 24 hr: 24 hr in 10% FCS
Procedure, shortened: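 Differentiated U937 cells treated with compound for 4 hr (5% FCS) or 24 hr (10% FCS), then given MTT for 1 hr; formazan dissolved in DMSO and absorbance read at 550 nm. Viability loss expressed as % versus 0.5% DMSO vehicle.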

recombinant PI3 kinase δ = recombinant PI3 kinase δ (Homo sapiens (Human), UniProt O00329); assay: Enzyme Inhibition Assay (HTRF PI3K enzyme assay, TR-FRET); type: biochemical; conditions: activity range; read-out: PI3 Kinase Inhibition IC50 values at stated Isozyme δ
Chain of recombinant PI3 kinase δ (O00329 whole entry, the tested form may be a part): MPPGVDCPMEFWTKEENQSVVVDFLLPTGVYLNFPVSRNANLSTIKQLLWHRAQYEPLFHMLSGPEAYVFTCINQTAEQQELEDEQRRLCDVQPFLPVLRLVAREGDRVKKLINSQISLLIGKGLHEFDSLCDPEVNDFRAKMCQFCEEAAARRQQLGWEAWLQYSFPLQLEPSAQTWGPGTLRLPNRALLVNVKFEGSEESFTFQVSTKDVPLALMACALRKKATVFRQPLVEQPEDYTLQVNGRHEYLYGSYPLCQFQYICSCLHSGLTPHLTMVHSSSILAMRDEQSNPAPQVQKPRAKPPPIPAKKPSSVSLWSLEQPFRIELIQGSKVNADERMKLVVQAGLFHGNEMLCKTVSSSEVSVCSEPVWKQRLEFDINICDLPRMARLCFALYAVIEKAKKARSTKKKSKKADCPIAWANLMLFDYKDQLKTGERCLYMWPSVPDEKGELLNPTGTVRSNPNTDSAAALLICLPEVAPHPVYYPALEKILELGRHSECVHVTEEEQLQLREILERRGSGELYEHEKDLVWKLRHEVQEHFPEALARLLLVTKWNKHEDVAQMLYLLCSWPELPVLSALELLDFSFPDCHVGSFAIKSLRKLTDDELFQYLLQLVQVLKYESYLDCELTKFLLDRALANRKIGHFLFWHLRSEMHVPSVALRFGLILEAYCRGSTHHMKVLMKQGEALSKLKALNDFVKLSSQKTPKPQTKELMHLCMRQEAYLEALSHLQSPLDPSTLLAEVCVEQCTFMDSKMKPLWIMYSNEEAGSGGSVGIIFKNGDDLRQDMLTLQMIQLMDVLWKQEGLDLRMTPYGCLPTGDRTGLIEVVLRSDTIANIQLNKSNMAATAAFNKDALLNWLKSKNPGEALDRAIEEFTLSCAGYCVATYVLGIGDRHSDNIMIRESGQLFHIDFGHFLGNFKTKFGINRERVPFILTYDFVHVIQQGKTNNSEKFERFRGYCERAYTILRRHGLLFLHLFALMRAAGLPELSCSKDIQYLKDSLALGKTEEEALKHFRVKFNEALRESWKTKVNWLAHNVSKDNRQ
Chain of recombinant PI3 kinase δ (P27986 whole entry partner, the tested form may be a part): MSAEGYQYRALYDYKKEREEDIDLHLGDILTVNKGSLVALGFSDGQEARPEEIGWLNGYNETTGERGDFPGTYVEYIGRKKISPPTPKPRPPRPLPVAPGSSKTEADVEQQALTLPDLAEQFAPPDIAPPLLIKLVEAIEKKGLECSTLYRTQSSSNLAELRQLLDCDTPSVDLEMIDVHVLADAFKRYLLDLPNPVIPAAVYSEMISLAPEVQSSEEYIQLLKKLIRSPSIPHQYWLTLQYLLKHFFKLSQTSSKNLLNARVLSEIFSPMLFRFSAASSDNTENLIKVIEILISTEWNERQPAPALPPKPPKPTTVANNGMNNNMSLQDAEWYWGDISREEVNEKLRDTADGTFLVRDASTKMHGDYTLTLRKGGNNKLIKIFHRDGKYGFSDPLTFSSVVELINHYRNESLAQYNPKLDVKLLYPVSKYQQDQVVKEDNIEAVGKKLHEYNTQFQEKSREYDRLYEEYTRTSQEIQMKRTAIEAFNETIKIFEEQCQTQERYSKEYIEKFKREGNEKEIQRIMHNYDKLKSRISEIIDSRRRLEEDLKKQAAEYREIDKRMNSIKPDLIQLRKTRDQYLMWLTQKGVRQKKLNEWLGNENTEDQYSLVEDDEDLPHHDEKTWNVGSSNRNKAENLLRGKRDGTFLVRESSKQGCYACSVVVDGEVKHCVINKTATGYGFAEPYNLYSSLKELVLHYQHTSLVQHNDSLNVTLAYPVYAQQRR
Procedure, shortened: (§1)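 TR-FRET readout after 15-18 hr at RT with biotinylated PIP3, GST-tagged GRP1 PH domain and europium/APC fluorophores; product PIP3 displaces the tracer and lowers the signal. Beforehand, compound and PIP2 were reacted for 2 hr at RT with human recombinant PI3Kα, δ or γ.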

recombinant PI3 kinase γ = recombinant PI3 kinase γ (Homo sapiens (Human), UniProt P48736); assay: as above; type: biochemical; conditions: activity range; read-out: PI3 Kinase Inhibition IC50 values at stated Isozyme γ
Chain of recombinant PI3 kinase γ (P48736 whole entry): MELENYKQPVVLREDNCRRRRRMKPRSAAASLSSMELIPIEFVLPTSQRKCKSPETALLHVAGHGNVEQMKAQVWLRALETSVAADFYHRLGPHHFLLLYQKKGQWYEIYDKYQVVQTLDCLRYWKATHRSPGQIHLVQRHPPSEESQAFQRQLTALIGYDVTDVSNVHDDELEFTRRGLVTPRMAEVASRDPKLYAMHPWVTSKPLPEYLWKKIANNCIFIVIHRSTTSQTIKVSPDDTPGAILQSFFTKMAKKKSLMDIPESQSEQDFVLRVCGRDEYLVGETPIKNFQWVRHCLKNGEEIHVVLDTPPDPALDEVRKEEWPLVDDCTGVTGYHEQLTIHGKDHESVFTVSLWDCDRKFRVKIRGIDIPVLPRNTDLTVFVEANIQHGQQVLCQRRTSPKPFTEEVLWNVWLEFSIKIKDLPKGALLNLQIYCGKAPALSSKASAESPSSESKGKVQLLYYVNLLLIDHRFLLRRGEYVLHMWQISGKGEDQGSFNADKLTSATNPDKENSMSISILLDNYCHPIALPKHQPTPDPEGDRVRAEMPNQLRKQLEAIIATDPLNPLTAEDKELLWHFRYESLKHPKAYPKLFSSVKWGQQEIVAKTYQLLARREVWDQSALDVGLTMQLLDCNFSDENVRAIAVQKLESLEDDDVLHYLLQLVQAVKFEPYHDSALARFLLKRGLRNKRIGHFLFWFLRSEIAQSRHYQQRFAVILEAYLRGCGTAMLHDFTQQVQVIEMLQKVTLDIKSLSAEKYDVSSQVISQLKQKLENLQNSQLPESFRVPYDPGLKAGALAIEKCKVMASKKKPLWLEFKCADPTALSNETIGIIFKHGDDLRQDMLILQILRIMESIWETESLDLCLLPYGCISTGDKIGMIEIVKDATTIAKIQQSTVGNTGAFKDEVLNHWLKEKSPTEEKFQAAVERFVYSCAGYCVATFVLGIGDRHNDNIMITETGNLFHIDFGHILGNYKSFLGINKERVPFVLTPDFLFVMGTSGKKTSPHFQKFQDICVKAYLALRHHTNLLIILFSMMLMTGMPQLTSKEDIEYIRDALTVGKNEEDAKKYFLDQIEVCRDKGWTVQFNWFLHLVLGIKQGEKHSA
Procedure, shortened: as §1

recombinant PI3 kinase α = recombinant PI3 kinase α (Homo sapiens (Human), UniProt P42336); assay: as above; type: biochemical; conditions: activity range; read-out: PI3 Kinase Inhibition IC50 values at stated Isozyme α
Chain of recombinant PI3 kinase α (P42336 whole entry): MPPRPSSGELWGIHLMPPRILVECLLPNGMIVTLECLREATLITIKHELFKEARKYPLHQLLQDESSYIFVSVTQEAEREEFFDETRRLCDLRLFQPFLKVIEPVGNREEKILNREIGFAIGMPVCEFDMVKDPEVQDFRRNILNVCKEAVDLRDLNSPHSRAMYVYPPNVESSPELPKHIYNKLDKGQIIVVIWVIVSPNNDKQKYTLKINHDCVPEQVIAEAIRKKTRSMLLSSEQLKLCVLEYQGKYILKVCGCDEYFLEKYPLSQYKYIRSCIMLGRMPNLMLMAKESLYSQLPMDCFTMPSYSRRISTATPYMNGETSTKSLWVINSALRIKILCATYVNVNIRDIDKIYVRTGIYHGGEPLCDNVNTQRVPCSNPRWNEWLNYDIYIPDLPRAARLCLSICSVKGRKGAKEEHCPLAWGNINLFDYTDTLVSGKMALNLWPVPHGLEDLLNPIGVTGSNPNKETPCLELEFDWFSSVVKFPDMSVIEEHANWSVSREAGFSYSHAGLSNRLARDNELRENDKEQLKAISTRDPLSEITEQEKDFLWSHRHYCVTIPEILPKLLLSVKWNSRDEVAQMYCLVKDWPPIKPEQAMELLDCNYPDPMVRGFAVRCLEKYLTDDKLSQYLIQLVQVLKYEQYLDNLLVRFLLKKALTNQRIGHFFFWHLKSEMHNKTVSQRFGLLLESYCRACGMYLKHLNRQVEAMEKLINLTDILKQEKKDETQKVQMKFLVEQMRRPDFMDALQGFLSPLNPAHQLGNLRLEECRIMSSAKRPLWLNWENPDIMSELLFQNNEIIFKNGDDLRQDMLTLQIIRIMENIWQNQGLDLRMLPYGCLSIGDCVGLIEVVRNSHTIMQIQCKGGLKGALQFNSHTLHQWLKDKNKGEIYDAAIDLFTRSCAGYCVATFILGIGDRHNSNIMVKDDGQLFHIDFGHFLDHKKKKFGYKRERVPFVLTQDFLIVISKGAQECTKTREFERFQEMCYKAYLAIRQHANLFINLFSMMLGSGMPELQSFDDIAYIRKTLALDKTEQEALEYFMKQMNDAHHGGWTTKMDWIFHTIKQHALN
Chain of recombinant PI3 kinase α (P27986 whole entry partner): as the sequence (P27986 whole entry partner, the tested form may be a part) above
Procedure, shortened: as §1

[2] = test system: H2O2 induced pAkt in D-U937 cells; assay: PI3Kδ Cell Based Assay (H2O2 induced pAkt); conditions: Homo sapiens, dU937; activity range; D-U937 cells; read-out: Cellular Activity IC50 values (H2O2 induced pAkt D-U937 Cells)
Procedure, shortened: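 Read-out is the pAkt/total Akt signal ratio, measured with anti-pAkt and anti-pan-Akt antibodies after H2O2 stimulation. Cells were U937 monocytes given PMA (100 ng/mL) for 48 to 72 hr. IC50 values fitted from compound serial dilutions.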

pIC50 (recombinant PI3 kinase δ) | pIC50 (recombinant PI3 kinase γ) | pIC50 (recombinant PI3 kinase α) | pIC50 [2] | Structure (SMILES) | Cell Viability MTT Assay in D-U937 cells at 4 hr [1] | Cell Viability MTT Assay in D-U937 cells at 24 hr [1]
> 7.30 | > 7.30 | 6.00 to 7.30 | > 8.00 | COc1cccc(Cn2c(Cn3nc(-c4ccc(O)cc4)c4c(N)ncnc43)nc3cccc(C#CCCCC(=O)N4CCOCC4)c3c2=O)c1F [Example 64, 2-((4-Amino-3-(4-hydroxyphenyl)-1H-pyrazolo[3,4-d]pyrimidin-1-yl)methyl)-3-(2-fluoro-3-methoxybenzyl)-5-(6-morpholino-6-oxohex-1-yn-1-yl)quinazolin-4(3H)-one] | − (− <30%) | − (− <30%)
> 7.30 | > 7.30 | 6.00 to 7.30 | > 8.00 | COC(=O)c1cccc(Cn2c(Cn3nc(-c4cccc(O)c4)c4c(N)ncnc43)nc3cccc(C#CCCCC(=O)N4CCOCC4)c3c2=O)c1 [Example 65, Methyl 3-((2-((4-amino-3-(3-hyroxyphenyl)-1H-pyrazolo[3,4-d]pyrimidin-1-yl)methyl)-5-(6-morpholino-6-oxohex-1-yn-1-yl)-4-oxoquinazolin-3(4H)-yl)methyl)benzoate] | − (− <30%) | − (− <30%)
> 7.30 | > 7.30 | 6.00 to 7.30 | > 8.00 | Cn1cc(Cn2c(Cn3nc(-c4cccc(O)c4)c4c(N)ncnc43)nc3cccc(C#CCCCC(=O)N4CCOCC4)c3c2=O)cn1 [Example 66] | − (− <30%) | + (+ >30%)
> 7.30 | > 7.30 | 6.00 to 7.30 | > 8.00 | Nc1ncnc2c1c(-c1cccc(O)c1)nn2Cc1nc2cccc(C#CCCCC(=O)N3CCOCC3)c2c(=O)n1Cc1ccc2occc2c1 [Example 67, 2-((4-Amino-3-(3-hydroxyphenyl)-1H-pyrazolo[3,4-d]pyrimidin-1-yl)methyl)-3-(benzofuran-5-ylmethyl)-5-(6-morpholino-6-oxohex-1-yn-1-yl)quinazolin-4(3H)-one] | − (− <30%) | − (− <30%)
> 7.30 | > 7.30 | 6.00 to 7.30 | > 8.00 | Cc1nc(Cn2c(Cn3nc(-c4cccc(O)c4)c4c(N)ncnc43)nc3cccc(C#CCCCC(=O)N4CCOCC4)c3c2=O)cs1 [Example 68, 2-((4-Amino-3-(3-hydroxyphenyl)-1H-pyrazolo[3,4-d]pyrimidin-1-yl)methyl)-3-((2-methylthiazol-4-yl)methyl)-5-(6-morpholino-6-oxohex-1-yn-1-yl)quinazolin-4(3H)-one] | − (− <30%) | − (− <30%)
> 7.30 | > 7.30 | 6.00 to 7.30 | > 8.00 | CN1CCN(C(=O)CCCC#Cc2cccc3nc(Cn4nc(-c5cccc(O)c5)c5c(N)ncnc54)n(Cc4ccccc4Cl)c(=O)c23)CC1 [Example 69, 2-((4-Amino-3-(3-hydroxyphenyl)-1H-pyrazolo[3,4-d]pyrimidin-1-yl)methyl)-3-(2-chlorobenzyl)-5-(6-(4-methylpiperazin-1-yl)-6-oxohex-1-yn-1-yl)quinazolin-4(3H)-one] | + (+ >30%) | − (− <30%)
> 7.30 | > 7.30 | 6.00 to 7.30 | > 8.00 | Nc1ncnc2c1c(-c1cccc(O)c1)nn2Cc1nc2cccc(C#CCCCC(=O)N3CCC(N4CCOCC4)CC3)c2c(=O)n1Cc1ccccc1Cl [Example 70, 2-((4-Amino-3-(3-hydroxyphenyl)-1H-pyrazolo[3,4-d]pyrimidin-1-yl)methyl)-3-(2-chlorobenzyl)-5-(6-(4-morpholinopiperidin-1-yl)-6-oxohex-1-yn-1-yl)quinazolin-4(3H)-one] | − (− <30%) | − (− <30%)

Second part, the compound before the results:

Structure (SMILES) | pIC50 (recombinant PI3 kinase δ) | pIC50 (recombinant PI3 kinase γ) | pIC50 (recombinant PI3 kinase α) | pIC50 [2] | Cell Viability MTT Assay in D-U937 cells at 4 hr [1] | Cell Viability MTT Assay in D-U937 cells at 24 hr [1]
Nc1ncnc2c1c(-c1ccc(O)cc1)nn2Cc1nc2cccc(C#CCCCC(=O)N3CCOCC3)c2c(=O)n1Cc1ccccc1F [Example 53, 2-((4-Amino-3-(4-hydroxyphenyl)-1H-pyrazolo[3,4-d]pyrimidin-1-yl)methyl)-3-(2-fluorobenzyl)-5-(6-morpholino-6-oxohex-1-yn-1-yl)quinazolin-4(3H)-one] | > 7.30 | > 7.30 | > 7.30 | > 8.00 | − (− <30%) | − (− <30%)
COCCNC(=O)CCCC#Cc1cccc2nc(Cn3nc(-c4cccc(O)c4)c4c(N)ncnc43)n(Cc3ccccc3Cl)c(=O)c12 [Example 54, 6-(2-((4-Amino-3-(3-hydroxyphenyl)-1H-pyrazolo[3,4-d]pyrimidin-1-yl)methyl)-3-(2-chlorobenzyl)-4-oxo-3,4-dihydroquinazolin-5-yl)-N-(2-methoxyethyl)hex-5-ynamide] | > 7.30 | > 7.30 | > 7.30 | > 8.00 | − (− <30%) | − (− <30%)
Nc1ncnc2c1c(-c1cccc(O)c1)nn2Cc1nc2cccc(C#CCCCCC(=O)N3CCOCC3)c2c(=O)n1Cc1ccccc1Cl [Example 55, 2-((4-Amino-3-(3-hydroxyphenyl)-1H-pyrazolo[3,4-d]pyrimidin-1-yl)methyl)-3-(2-chlorobenzyl)-5-(7-morpholino-7-oxohept-1-yn-1-yl)quinazolin-4(3H)-one] | > 7.30 | > 7.30 | 6.00 to 7.30 | > 8.00 | − (− <30%) | − (− <30%)
Nc1ncnc2c1c(-c1cccc(O)c1)nn2Cc1nc2cccc(C#CCCC(=O)N3CCOCC3)c2c(=O)n1Cc1ccccc1Cl [Example 56] | > 7.30 | > 7.30 | > 7.30 | > 8.00 | − (− <30%) | − (− <30%)
Nc1ncnc2c1c(-c1ccc(O)cc1)nn2Cc1nc2cccc(C#CCCCC(=O)N3CCCCC3)c2c(=O)n1Cc1ccccc1Cl [Example 58, 2-((4-Amino-3-(4-hydroxyphenyl)-1H-pyrazolo[3,4-d]pyrimidin-1-yl)methyl)-3-(2-chlorobenzyl)-5-(6-oxo 6-(piperidin-1-yl)hex-1-yn-1-yl)quinazolin-4(3H)-one] | > 7.30 | > 7.30 | 6.00 to 7.30 | > 8.00 | − (− <30%) | − (− <30%)
CCN(CC)C(=O)CCCC#Cc1cccc2nc(Cn3nc(-c4ccc(O)cc4)c4c(N)ncnc43)n(Cc3ccccc3Cl)c(=O)c12 [Example 59, 6-(2-((4-Amino-3-(4-hydroxyphenyl)-1H-pyrazolo[3,4-d]pyrimidin-1-yl)methyl)-3-(2-chlorobenzyl)-4-oxo-3,4-dihydroquinazolin-5-yl)-N,N-diethylhex-5-ynamide] | > 7.30 | > 7.30 | 6.00 to 7.30 | > 8.00 | − (− <30%) | − (− <30%)
Nc1ncnc2c1c(-c1cccc(O)c1)nn2Cc1nc2cccc(C#CCCCCC(=O)O)c2c(=O)n1Cc1ccccc1Cl [Example 60, 7-(2-((4-Amino-3-(3-hydroxyphenyl)-1H-pyrazolo[3,4-d]pyrimidin-1-yl)methyl)-3-(2-chlorobenzyl)-4-oxo-3,4-dihydroquinazolin-5-yl)hept-6-ynoic acid] | > 7.30 | > 7.30 | 6.00 to 7.30 | > 8.00 | − (− <30%) | − (− <30%)
COc1cc(Cn2c(Cn3nc(-c4ccc(O)cc4)c4c(N)ncnc43)nc3cccc(C#CCCCC(=O)N4CCOCC4)c3c2=O)cc(C(F)(F)F)c1 [Example 62, 2-((4-Amino-3-(4-hydroxyphenyl)-1H-pyrazolo[3,4-d]pyrimidin-1-yl)methyl)-3-(3-methoxy-5-(trifluoromethyl)benzyl)-5-(6-morpholino-6-oxohex-1-yn-1-yl)quinazolin-4(3H)-one] | > 7.30 | > 7.30 | 6.00 to 7.30 | > 8.00 | − (− <30%) | − (− <30%)
Nc1ncnc2c1c(-c1ccc(O)cc1)nn2Cc1nc2cccc(C#CCCCC(=O)N3CCOCC3)c2c(=O)n1Cc1cc2ccccc2s1 [Example 63, 2-((4-Amino-3-(4-hydroxyphenyl)-1H-pyrazolo[3,4-d]pyrimidin-1-yl)methyl)-3-(benzo[b]thiophen-2-ylmethyl)-5-(6-morpholino-6-oxohex-1-yn-1-yl)quinazolin-4(3H)-one] | > 7.30 | > 7.30 | 6.00 to 7.30 | > 8.00 | − (− <30%) | − (− <30%)
